Laboratory results reported in US20070259094A1, “N-acetylglucosamine as a food and beverage additive” (priority 2002, published 2007).
Where two headings read alike, the source gives them in different places. Values belong to the compound of their own block, whether it stands above or below them.

How the values were obtained:
[1] = system: IL-1β-induced NO production in normal human articular chondrocytes; settings: cited from earlier work; for Inhibitory Activity on IL-1β induced NO Production: table of various sugars; for effect on IL-1β-induced NO production: normal human articular chondrocytes
[2] = system: osteoarthritis (knee); settings: 4-week course, cited from earlier work; for symptoms of osteoarthritis: glucosamine sulphate 1,500 mg, ibuprofen 1,200 mg
[3] = system: primary knee osteoarthritis; settings: cited from earlier work
[4] = pH of aqueous solution; type: physicochemical; settings: for pH of solution: 2 grams in 180 mL of water
Description: Two grams of glucosamine sulphate in 180 mL of water gives a solution with a pH of 6.06 and glucosamine hydrochloride gives a solution with a pH of 6.07.
A solution of 2 grams of N-acetylglucosamine in 180 mL of water has a pH of 7.40.

[5] = Bran muffin baking behaviour at 400° F. (204° C.); type: physicochemical; settings: bran muffins baked at 204° C.
Description: Measure out 4 times 415 mL dry muffin mix (sufficient to make 6 muffins each) to make up the following formulae
Add to each dry mix 160 mL of water and ¼ of egg mixture and mix thoroughly.
Pour equal amounts into 6 muffin cups for each of the formulae.
Preheat oven to 400° F. or 204° C., bake each formula separately and observing cooking behaviour.

[6] = system: osteoarthritis of the temporomandibular joint; settings: cited from earlier work; for patients improved (positive clinical response = 20% decrease TMJ pain with function): GS 500 mg tid, ibuprofen 400 mg tid, p=0.73 between groups; for number of patients improved (positive clinical response): of 21 GS and 18 ibuprofen completers
[7] = system: Inducible NO Synthetase; settings: cited from earlier work; for inhibiting the production of nitric oxide synthetase: human chondrocytes stimulated with IL-1
[8] = cited from earlier work
[9] = system: intestinal mucosa; settings: cited from earlier work
[10] = system: IL-6; settings: cited from earlier work; for inhibiting the production of IL-6: human chondrocytes stimulated with IL-1
[11] = system: COX-2; settings: cited from earlier work; for inhibiting the production of COX-2: human chondrocytes stimulated with IL-1
[12] = cited from earlier work; for absolute bioavailability: compared with IV at 100%
[13] = system: severe treatment-resistant inflammatory bowel disease; settings: cited from earlier work
[14] = system: intestinal mucosa; experiment: Incorporation of glucosamine and N-acetylglucosamine into glycoproteins of intestinal mucosa in vitro; type: cell-based, human; settings: normal subjects, on average
Text: Inflammatory conditions can also interfere with the incorporation of glucosamine into glycosaminoglycans. Intestinal mucosal from patients with ulcerative colitis and Crohn's disease and from patients without inflammatory disease were studied in vitro. N-acetylglucosamine is preferentially incorporated into glycoproteins over glucosamine. In normal subjects—ratio ranges were from 0.04 to 0.26 with a mean 0.097. Thus on average 10 times more N-acetylglucosamine is incorporated into macromolecules than glucosamine. In IBD the mean ratio of incorporation of glucosamine to N-acetylglucosamine is 0.039 for Crohn's and 0.031 for ulcerative colitis. In other words, 25 to 32 times more N-acetylglucosamine was incorporated into macromolecules compared to glucosamine (2).

[15] = system: COX-1; settings: constitutively expressed, human chondrocytes; cited from earlier work
[16] = cited from earlier work; for half-life: doses as high as 20 grams per human subject; for adverse events: five subjects
[17] = number of patients of 106, three years
[18] = IL-1β-stimulated human chondrocytes
[19] = rectal administration as sole therapy

SMILES: CC(=O)N[C@@H]1[C@@H](O)[C@@H](O)[C@@H](CO)O[C@@H]1O [N-Acetylgalactosmine]
- Inhibitory Activity on IL-1β induced NO Production [1]: Strong

SMILES: N[C@H]1C(O)O[C@H](CO)[C@@H](O)[C@@H]1O.O=S(=O)(O)O (stereo partly drawn) [Glucosamine Sulphate]
- patients dropped out because of adverse events / side effects [2]: None
- symptoms of osteoarthritis [2]: reduced symptoms
- significant joint space narrowing ([3]; 1.5 grams per day, three years, versus placebo, p<0.05): did not
- fasting plasma glucose concentrations ([3]; during the study): decreasing slightly
- Withdrawal from Study Due to Adverse Events [3, 17]: 21
- Withdrawal from Study, Lack of Efficacy [3, 17]: 3
- incidence and type of adverse events versus placebo ([3]; three-year period): not different between the two groups
- routine laboratory tests (system organs, metabolic functions) ([3]; three-year period): did not show any abnormalities
- pH (1% in water) [4]: 6.06
- pH of solution [4]: 6.06
- stability in the baking process [5]: break down in the baking process
- patients improved (positive clinical response = 20% decrease TMJ pain with function) ([6]; 90 days): 71%
- patients discontinued due to dizziness ([6]; 90 days): one
- patients discontinued due to stomach upset ([6]; 90 days): one
- decrease in TMJ pain with function and acetaminophen use, between-group comparison ([6]; between Day 90 and 120, compared with ibuprofen): significantly greater decrease
- number of patients improved (positive clinical response) [6]: Fifteen

SMILES: CC(=O)N[C@@H]1C(O)O[C@H](CO)[C@@H](O)[C@@H]1O (stereo partly drawn) [N-Acetylmannosamine]
- effect on IL-1β-induced NO production [1]: do not express this activity
- Inhibitory Activity on IL-1β induced NO Production [1]: Nil

SMILES: N[C@H]1C(O)O[C@H](CO)[C@@H](O)[C@@H]1O (stereo partly drawn) [Glucosamine]
- inhibiting the production of nitric oxide synthetase [7]: not effective
- effect on IL-1β-induced NO production [1]: inhibit
- Inhibitory Activity on IL-1β induced NO Production [1]: Weak
- total body insulin sensitivity ([8]; forearm glucosamine infusion, twenty human volunteers): did not affect
- baseline arteriovenous glucose differences ([8]; glucosamine infusion): not affected
- forearm blood flow ([8]; glucosamine infusion): did not alter
- forearm skeletal muscle glucose uptake ([8]; glucosamine infusion): did not affect
- mean ratio of incorporation of glucosamine to N-acetylglucosamine ([9]; Crohn's): 0.039
- ratio of incorporation of glucosamine to N-acetylglucosamine, mean ([9]; normal subjects): 0.097
- mean ratio of incorporation of glucosamine to N-acetylglucosamine ([9]; ulcerative colitis): 0.031
- inhibiting the production of IL-6 [10]: not effective
- inhibiting the production of COX-2 [11]: not effective
- absolute bioavailability ([12]; IM administration): 93%
- absolute bioavailability ([12]; oral administration): 44%
- administered dose excreted by the kidneys ([12]; oral route): about 10%
- administered dose excreted via the feces ([12]; oral route): 11%

SMILES: O=C[C@H](O)[C@@H](O)[C@H](O)[C@H](O)C(=O)O [Glucuronic Acid]
- effect on IL-1β-induced NO production [1]: do not express this activity
- Inhibitory Activity on IL-1β induced NO Production [1]: Nil

SMILES: CC(C)Cc1ccc(C(C)C(=O)O)cc1 (stereo not drawn) [ibuprofen]
- patients dropped out because of adverse events / side effects [2]: 10%
- symptoms of osteoarthritis [2]: reduced symptoms
- patients improved (positive clinical response = 20% decrease TMJ pain with function) ([6]; 90 days): 61%
- patients discontinued due to inadequate pain control ([6]; 90 days): one
- patients discontinued due to stomach upset ([6]; 90 days): 3
- number of patients improved (positive clinical response) [6]: 11

- pH (1% in water) [4]: 7.4
- pH of solution [4]: 7.40
- stability in the baking process [5]: stable during the baking process
SMILES: CC(=O)N[C@H]1C(O)O[C@H](CO)[C@@H](O)[C@@H]1O (stereo partly drawn) [N-Acetylglucosamine, N-acetylglucosamine]
- Inducible NO Synthetase Expression, Protein [7, 18]: inhibits
- Inducible NO Synthetase Expression, mRNA [7, 18]: inhibits
- inhibiting the production of nitric oxide synthetase [7]: inhibiting
- ability to inhibit IL-1β-induced NO production relative to glucosamine ([1]; 10 mM concentration): 5 times
- effect on IL-1β-induced NO production [1]: inhibit
- Inhibitory Activity on IL-1β induced NO Production [1]: Strong
- adverse side-effects of treatment ([13]; 3 to 6 grams daily in three divided doses): no adverse side-effects of treatment were noted in any patient
- histology in all cases biopsied ([13]; in vivo): evidence of histological improvement
- children with symptomatic Crohn's stricture requiring surgery ([13]; of 7, mean follow-up >2.5 years): 3
- children showing clear improvement ([13]; oral adjunct therapy, 3-6 g daily, 12 children): Eight
- children requiring resection ([13]; oral adjunct therapy, 12 children): four
- cases of remission ([13]; rectal administration as sole therapy, nine children): two
- cases of clear improvement [13, 19]: three
- cases of no effect [13, 19]: two
- times more N-acetylglucosamine incorporated into macromolecules than glucosamine [14]: 10 times
- COX-1 Expression, Protein [15]: No Inhibition
- half-life ([16]; IV): 3.67 h
- blood sugar when administered without insulin ([16]; IV, human): Neither agent showed a rise in blood sugar
- administered dose excreted in the urine ([16]; IV, in 24 hours): 54%
- adverse events [16]: no adverse events reported
- IL-6 Production [10, 18]: inhibits
- inhibiting the production of IL-6 [10]: inhibiting
- COX-2 Expression, Protein [11, 18]: inhibits
- COX-2 Expression, mRNA [11, 18]: inhibits
- inhibiting the production of COX-2 [11]: inhibiting

SMILES: Cl.N[C@H]1C(O)O[C@H](CO)[C@@H](O)[C@@H]1O (stereo partly drawn) [Glucosamine hydrochloride]
- pH (1% in water) [4]: 6.07
- pH of solution [4]: 6.07
- half-life ([16]; IV): 2.5 h
- adverse events [16]: no adverse events reported
- blood sugar when administered with 7 units of insulin ([16]; human, in vivo, iv): showed a rise in blood sugar
- blood sugar when administered without insulin ([16]; human, in vivo, iv): Neither agent showed a rise in blood sugar
- stability in the baking process [5]: break down in the baking process
